Patent US6716829B2, “Aldosterone antagonist and cyclooxygenase-2 inhibitor combination therapy to prevent or treat inflammation-related cardiovascular disorders” (Pharmacia Corporation, priority 2000, dated 2004)
Several values for one entry are separate records, joined by “and”; a condition that tells them apart may be missing. Identical values can stand only once. Entries after “also recorded” stand apart in the source; their conditions may differ.

Assays:
[1] = test system: aldosterone infused rats; assay: Assay B, aldosterone infusion model: systolic blood pressure by radio-telemetry; assay type: in vivo, Male Sprague Dawley rats; details: 1% NaCl, uni-nephrectomized rats, eplerenone 100 mpk p.o., 4 weeks
Protocol: Human cardiovascular disorders are complex conditions, often initiated by vascular hypertension or a myocardial infarction (MI). In order to determine the probable effectiveness of a therapy for cardiovascular disorders, it is important to determine the potency of components in several assays. Accordingly, in Assay “A”, the efficacy of the aldosterone antagonist epeplerenone (epoxymexrenone) was determined in a hypertensive rat model with vascular inflammation, using angiotensin II infusion. In Assay “B” a study is described evaluating the efficacy of the aldosterone antagonist epeplerenone (epoxymexrenone) in a rat model using aldosterone infusion to produce hypertension with vascular inflammation. In Assay “C” a further study is described evaluating the efficacy of the aldosterone antagonist epeplerenone (epoxymexrenone) in a rat model using aldosterone infusion to produce hypertension with vascular inflammation. Assay B: In Vivo Aldosterone Infusion Model Male Sprague Dawley rats (n=39; BW=250 g) […] Uni-nephrectomy performed during implantation of mini-pumps 2. Aldosterone ([…], sc via alzet minipump) 2. […] 1. […] SBP measured by radio-telemetry probes inserted in the abdominal aorta

[2] = test system: aldosterone-infused, saline-drinking, uni-nephrectomized rats; assay: Assay B: heart histology (hematoxylin&eosin), vascular inflammatory lesions and myocardial injury; assay type: in vivo, Male Sprague Dawley rats; details: eplerenone 100 mpk p.o., 0.6% KCl group, 4 weeks
Protocol: Assay B: In Vivo Aldosterone Infusion Model Male Sprague Dawley rats (n=39; BW=250 g) […] Uni-nephrectomy performed during implantation of mini-pumps 2. Aldosterone ([…], sc via alzet minipump) 2. […] 1. […] Sacrifice after 4 weeks. Hearts were harvested and divided by half through a transverse section at the mid-ventricles: The upper half was stored into formalin. The bottom part was snap-frozen in liquid nitrogen for biochemical analysis. Hearts were stained with hematoxylin&eosin and the collagen specific dye picro-sirius red and were analyzed for determination of interstitial collagen volume fraction and morphologic abnormalities (i.e. necrosis, vascular injury).

[3] = Assay C: body weight, left and right ventricle weight, tibia length (myocardial hypertrophy); assay type: in vivo, Male Sprague-Dawley rats; details: for Body weight: aldosterone + salt at days 7, 14 and 30 vs vehicle + salt, eplerenone effect at day 30; for Ventricular hypertrophy (absolute ventricular weights, ventricular weight to tibia length ratios): 7 to 30 days
Protocol: The procedure of Assay B was expanded upon in a further study. […] Myocardial tissue from animals in each treatment group was examined after 7, 14, or 30 days of treatment.
Male Sprague-Dawley rats, weighing 230 to 250 g, (Harlan Sprague-Dawley Industries, Indianapolis, IN) were housed in a room 12-hours light/12-hours dark daily cycle at an ambient temperature of 22±1° C. (n=96). Animals were allowed one week to adjust after arrival and had free access to TEKLAD 22/5 rodent diet (Harlan TEKLAD, Madison, Wis.) and tap water until the initiation of the experiment.
Potassium chloride supplementation was added to the saline solution in order to prevent the potential hypokalemia associated with aldosterone excess.
At the time of the surgery, an Alzet 2002 osmotic minipump (Alza Corp., Palo Alto, Calif.) containing either vehicle (9% ethanol/87% propylene glycol/4% dH2O) or 1.0 mg/mL d-aldosterone (Sigma Chemical, St. Louis, Mo.) was inserted subcutaneously at the nape of the neck. Aldosterone was administered at a dose of 0.75 µg/hour. […] Animals were sacrificed from each group (n=8-13) after 7, 14, or 30 days of treatment.
Animals to be sacrificed after 7 or 14 days of treatment were uninephrectomized and implanted with an Alzet minipump. Animals treated for 30 days were uninephrectomized, fitted for Alzet minipumps, and implanted with radio telemetry units (model #TA11PA-C40, Data Sciences Inc., St. Paul, Minn.) according to the following procedure. Animals were anesthetized with 5% isoflurane (SOLVAY Animal Health Inc., Mendota Heights, Minn.), which was delivered in O2 using a VMS anesthesia instrument (Matrix Medical, Inc., Orchard Park, N.Y.). Anesthesia was maintained with 1-2% isoflurane throughout the surgical procedure. The surgery site was clipped, scrubbed with nolvasan, and sprayed with betadine. A rostral-caudal incision was made through the skin from the base of the rib cage to the pubic region using a #11 scalpel blade. A second incision was made through the muscles of the abdominal wall to expose the peritoneal cavity. The […], renal artery and vein of the left kidney were isolated, tied off with 4-0 silk, and the kidney excised and discarded. Organs were carefully displaced with tissue retractors in order to expose the abdominal aorta. A 1.5 cm segment just rostral to the bifurcation of the abdominal aorta into the iliac arteries was cleared of excessive connective tissue and 4-0 silk was used to make an anchor adjacent to the aorta. A microvascular clip was then placed at both ends of the cleaned region to stop excessive blood flow. Using a bent, 21 gauge needle, the abdominal aorta was penetrated. The cannula of the radio telemetry unit was inserted and stabilized in the aorta using the 4-0 silk anchor. Organs were repositioned and the telemetry unit was placed over the organs. Using a non-interrupted suture pattern with 4-0 silk, the abdominal wall was closed, and the skin was subsequently closed using a 4-0 silk in an interrupted suture pattern. Animals were injected around the sutures with 100 μL of the anesthetic Marcaine HCl (Sanofi Winthrop Pharmaceuticals, New York, N.Y.) and given an injection (i.m.) of the antibiotic Mandol (Eli Lilly & Co., Indianapolis, Ind.). Post-operative care included monitoring the animals on a heating pad during recovery from anesthesia until sternal recumbency was reestablished. Animals were monitored daily for signs of distress and infection at the surgical site. Animals displaying continued discomfort after surgery were treated with 0.1-0.5 mg/kg, s.c. Buphrenorphine (Rickett & Colman Pharmaceuticals, Inc. Richmond, Va.). Animals were then placed on tap water and TEKLAD 22/5 rodent diet (Harlan TEKLAD, Madison, Wis.).

[4] = 14-day protocol, individual rats and group Mean, listed as Aldosterone + salt
[5] = 14-day protocol, individual rats and group Mean, listed as Aldosterone + salt, mean
[6] = 30-day protocol, individual rats and group Mean, listed as Aldosterone + salt
[7] = 30-day protocol, individual rats and group Mean, listed as Aldosterone + salt, group mean
[8] = aldosterone + salt, eplerenone 100 mg/kg/day
[9] = mean ± SEM after 7 days of treatment, aldosterone + salt, eplerenone 100 mg/kg/day
[10] = mean ± SEM after 14 days of treatment, aldosterone + salt, eplerenone 100 mg/kg/day
[11] = mean ± SEM after 30 days of treatment, eplerenone dose 100 mg/kg/day
[12] = 14-day protocol, individual rats and group Mean, listed as Eplerenone + aldosterone + salt
[13] = 14-day protocol, individual rats and group Mean, listed as Eplerenone + aldosterone + salt, mean
[14] = individual rats and group mean, 7 days of treatment, aldosterone + salt, eplerenone 100 mg/kg/day
[15] = individual rats and group mean, 7 days of treatment, aldosterone + salt, eplerenone 100 mg/kg/day, group mean

SMILES: C[C@]12CCC(=O)C=C1CC[C@@H]1[C@@H]2[C@@H](O)C[C@]2(C=O)[C@@H](C(=O)CO)CC[C@@H]12 [Aldosterone]
- Systolic Blood Pressure [1]: increased; also recorded: systolic blood pressure elevation
- Vascular inflammatory changes / myocardial injury [2]: severe vascular inflammatory lesions
- Left Ventricle Weight [3, 4]: 846 mg and 784 mg and 912 mg and 720 mg and 923 mg and 854 mg and 894 mg and 859 mg and 750 mg and 818 mg and 746 mg and 700 mg
- Left Ventricle Weight/ Tibia Length [3, 4]: 223 mg/cm and 206 mg/cm and 234 mg/cm and 189 mg/cm and 237 mg/cm and 225 mg/cm and 229 mg/cm and 220 mg/cm and 197 mg/cm and 215 mg/cm and 202 mg/cm and 194 mg/cm
- Right Ventricle Weight [3, 4]: 194 mg and 189 mg and 208 mg and 174 mg and 217 mg and 186 mg and 216 mg and 171 mg and 153 mg and 195 mg and 172 mg
- Right Ventricle Weight/ Tibia Length [3, 4]: 51 mg/cm and 50 mg/cm and 53 mg/cm (3×) and 56 mg/cm and 49 mg/cm and 55 mg/cm and 44 mg/cm and 40 mg/cm and 48 mg/cm
- Left Ventricle Weight [3, 5]: 817 mg
- Left Ventricle Weight/ Tibia Length [3, 5]: 214 mg/cm
- Right Ventricle Weight [3, 5]: 189 mg
- Right Ventricle Weight/ Tibia Length [3, 5]: 50 mg/cm
- Left Ventricle Weight [3, 6]: 934 mg and 726 mg and 963 mg and 942 mg and 1030 mg and 837 mg and 962 mg and 873 mg and 919 mg
- Left Ventricle Weight/ Tibia Length [3, 6]: 234 mg/cm and 191 mg/cm and 247 mg/cm (2×) and 242 mg/cm (2×) and 264 mg/cm and 215 mg/cm and 218 mg/cm
- Right Ventricle Weight [3, 6]: 196 mg and 148 mg and 215 mg and 176 mg and 224 mg and 173 mg and 220 mg and 187 mg and 185 mg
- Right Ventricle Weight/ Tibia Length [3, 6]: 49 mg/cm (2×) and 39 mg/cm and 55 mg/cm and 45 mg/cm and 57 mg/cm and 44 mg/cm and 56 mg/cm and 47 mg/cm
- Left Ventricle Weight [3, 7]: 910 mg
- Left Ventricle Weight/ Tibia Length [3, 7]: 233 mg/cm
- Right Ventricle Weight [3, 7]: 192 mg
- Right Ventricle Weight/ Tibia Length [3, 7]: 49 mg/cm
- Body weight [3]: significantly lower
- Ventricular hypertrophy (absolute ventricular weights, ventricular weight to tibia length ratios) [3, 8]: Significant left and right ventricular hypertrophy
- Final Body Weight [3, 9]: 277 ± 5 g
- Left Ventricle Weight [3, 9]: 736 ± 25 mg
- Left Ventricle Weight/ Tibia Length [3, 9]: 194 ± 6 mg/cm
- Right Ventricle Weight [3, 9]: 183 ± 7 mg
- Right Ventricle Weight/ Tibia Length [3, 9]: 48 ± 2 mg/cm
- Final Body Weight [3, 10]: 270 ± 11 g
- Left Ventricle Weight [3, 10]: 817 ± 22 mg
- Left Ventricle Weight/ Tibia Length [3, 10]: 214 ± 5 mg/cm
- Right Ventricle Weight [3, 10]: 189 ± 5 mg
- Right Ventricle Weight/ Tibia Length [3, 10]: 50 ± 1 mg/cm
- Final Body Weight [3, 11]: 272 ± 10 g
- Left Ventricle Weight [3, 11]: 910 ± 29 mg
- Left Ventricle Weight/ Tibia Length [3, 11]: 233 ± 7 mg/cm
- Right Ventricle Weight [3, 11]: 192 ± 8 mg
- Right Ventricle Weight/ Tibia Length [3, 11]: 49 ± 2 mg/cm

SMILES: COC(=O)[C@@H]1CC2=CC(=O)CC[C@]2(C)[C@@]23O[C@@H]2C[C@@]2(C)[C@@H](CC[C@@]24CCC(=O)O4)[C@H]13 [Eplerenone]
- Systolic Blood Pressure [1]: significantly reduced, but did not normalize blood pressure
- Systolic Blood Pressure ([1]; listed as eplerenone): depression of this elevation
- Vascular inflammatory changes / myocardial injury [2]: prevention; also recorded: completely prevented
- Left Ventricle Weight [3, 12]: 804 mg and 898 mg and 789 mg and 851 mg and 668 mg and 833 mg and 886 mg and 756 mg and 751 mg and 795 mg and 915 mg
- Left Ventricle Weight/ Tibia Length [3, 12]: 212 mg/cm and 236 mg/cm and 221 mg/cm and 176 mg/cm and 225 mg/cm and 233 mg/cm and 199 mg/cm and 198 mg/cm and 215 mg/cm and 235 mg/cm
- Right Ventricle Weight [3, 12]: 182 mg and 188 mg (2×) and 176 mg and 189 mg and 139 mg and 371 mg and 193 mg and 158 mg and 155 mg and 225 mg
- Right Ventricle Weight/ Tibia Length [3, 12]: 48 mg/cm and 49 mg/cm (3×) and 46 mg/cm and 37 mg/cm and 100 mg/cm and 51 mg/cm and 42 mg/cm (2×) and 58 mg/cm
- Left Ventricle Weight [3, 13]: 813 mg
- Left Ventricle Weight/ Tibia Length [3, 13]: 214 mg/cm
- Right Ventricle Weight [3, 13]: 197 mg
- Right Ventricle Weight/ Tibia Length [3, 13]: 52 mg/cm
- Body weight [3]: significantly attenuated
- Ventricular hypertrophy (absolute ventricular weights, ventricular weight to tibia length ratios) [3, 8]: did not impact
- Left Ventricle Weight [3, 14]: 859 mg and 712 mg and 618 mg and 658 mg and 754 mg and 733 mg and 726 mg and 696 mg and 700 mg and 688 mg
- Left Ventricle Weight/ Tibia Length [3, 14]: 220 mg/cm and 187 mg/cm and 167 mg/cm and 173 mg/cm and 198 mg/cm and 193 mg/cm and 191 mg/cm and 183 mg/cm and 184 mg/cm and 181 mg/cm
- Right Ventricle Weight [3, 14]: 216 mg and 181 mg (2×) and 154 mg and 174 mg and 192 mg and 171 mg and 190 mg and 170 mg and 187 mg
- Right Ventricle Weight/ Tibia Length [3, 14]: 55 mg/cm and 48 mg/cm (2×) and 42 mg/cm and 46 mg/cm and 51 mg/cm and 45 mg/cm (2×) and 50 mg/cm and 49 mg/cm
- Left Ventricle Weight [3, 15]: 714 mg
- Left Ventricle Weight/ Tibia Length [3, 15]: 188 mg/cm
- Right Ventricle Weight [3, 15]: 182 mg
- Right Ventricle Weight/ Tibia Length [3, 15]: 48 mg/cm
- Final Body Weight [3, 9]: 287 ± 4 g
- Left Ventricle Weight [3, 9]: 714 ± 20 mg
- Left Ventricle Weight/ Tibia Length [3, 9]: 188 ± 5 mg/cm
- Right Ventricle Weight [3, 9]: 182 ± 5 mg
- Right Ventricle Weight/ Tibia Length [3, 9]: 48 ± 1 mg/cm
- Final Body Weight [3, 10]: 283 ± 6 g
- Left Ventricle Weight [3, 10]: 813 ± 22 mg
- Left Ventricle Weight/ Tibia Length [3, 10]: 214 ± 6 mg/cm
- Right Ventricle Weight [3, 10]: 197 ± 19 mg
- Right Ventricle Weight/ Tibia Length [3, 10]: 52 ± 5 mg/cm
- Final Body Weight (g) [3, 11]: 331 ± 7^# g
- Left Ventricle Weight [3, 11]: 936 ± 34 mg
- Left Ventricle Weight/ Tibia Length [3, 11]: 240 ± 9 mg/cm
- Right Ventricle Weight [3, 11]: 198 ± 6 mg
- Right Ventricle Weight/ Tibia Length [3, 11]: 51 ± 2 mg/cm
